Results from PubChem BioAssay (NCI).
Several values for one entry are separate records, joined by “and”; a condition that tells them apart may be missing. Identical values can stand only once.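 Test compounds were applied to cells in 96-well plates for 48 hours at 5 doses. GI50 = concentration required for 50% inhibition of growth. TGI is the concentration that stops growth completely.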

Key:
Assay in all cases: growth of human tumour cells (NCI), 48 h
NCI-H522 lung = test system: NCI-H522 lung
UO-31 renal = test system: UO-31 renal
SK-OV-3 ovarian = test system: SK-OV-3 ovarian
ACHN renal = test system: ACHN renal
HOP-62 NSCLC = test system: HOP-62 NSCLC
SF-268 CNS = test system: SF-268 CNS
HCC-2998 colon = test system: HCC-2998 colon
CAKI-1 renal = test system: CAKI-1 renal
HT29 colon = test system: HT29 colon
A498 renal = test system: A498 renal

SMILES | TGI (NCI-H522 lung) | TGI (UO-31 renal) | TGI (SK-OV-3 ovarian) | TGI (ACHN renal) | TGI (HOP-62 NSCLC) | TGI (SF-268 CNS) | TGI (HCC-2998 colon) | TGI (CAKI-1 renal) | TGI (HT29 colon) | TGI (A498 renal) | GI50 (NCI-H522 lung) | GI50 (UO-31 renal) | GI50 (SK-OV-3 ovarian) | GI50 (ACHN renal) | GI50 (HOP-62 NSCLC) | GI50 (SF-268 CNS) | GI50 (HCC-2998 colon) | GI50 (CAKI-1 renal) | GI50 (HT29 colon) | GI50 (A498 renal)
Cc1ccccc1OC(C)C(=O)NN1C(=O)CC(=O)N(c2ccc(Cl)cc2)C1=S (stereo unspecified) | > 100 µM | > 100 µM | > 100 µM | > 100 µM | > 100 µM | > 100 µM | 71.9 µM | > 100 µM | > 100 µM | 64.6 µM | – | – | – | – | – | – | – | – | – | –
N#Cc1c(-c2ccccc2)/c(=C\Nc2ccc(Cl)cc2)c(=O)n2c1nc1ccccc12 | > 100 µM | > 100 µM | > 100 µM | > 100 µM | > 100 µM | > 100 µM | > 100 µM | 94.4 µM | – | > 100 µM | – | – | – | – | – | – | – | – | – | –
COC(=O)c1c(C)cccc1/C=C1/Cc2c(C)cccc2C1=O | > 100 µM | > 100 µM | > 100 µM | > 100 µM | > 100 µM | > 100 µM | > 100 µM | > 100 µM | > 100 µM | > 100 µM | – | – | – | – | – | – | – | – | – | –
COc1ccc2c(c1)O/C(=C\c1cccc(OCC(=O)Nc3nc4c(s3)CCCC4)c1)C2=O | 13.9 µM | 3.15 µM | > 100 µM | 33.6 µM | > 55.4 µM | 12.3 µM | > 100 µM | > 100 µM | > 100 µM | > 100 µM | 3.79 µM | 1.69 µM | > 72.6 µM | 4.43 µM | > 34 µM | 5.33 µM | > 100 µM | 4.66 µM | 25.1 µM | > 42.5 µM
COc1ccc(/C(=N/O)c2ccccc2-c2nc3ccccc3c(=O)n2-c2ccc(S(=O)(=O)Nc3ncccn3)cc2)cc1C | 23.7 µM | > 31.6 µM | 20.8 µM | 25.1 µM | > 31.6 µM | > 31.6 µM | 21.7 µM | > 31.6 µM | – | > 31.6 µM | – | – | – | – | – | – | – | – | – | –
CCOC(=O)c1[nH]cc(C)c1-c1ccn(-c2ccccc2)c1 | 71.2 µM | > 100 µM | > 100 µM | > 100 µM | > 100 µM | > 100 µM | > 100 µM | > 100 µM | > 100 µM | > 100 µM | – | – | – | – | – | – | – | – | – | –
CSC1CC2C(CC1(C)O)C2(C)C (stereo unspecified) | > 100 µM | > 100 µM | > 100 µM | > 100 µM | > 100 µM | > 100 µM | > 100 µM | > 100 µM | > 100 µM | > 100 µM | 33.8 µM and > 100 µM | – | – | – | – | – | – | – | – | –
CCNC(=O)Nc1ccccn1 | > 100 µM | > 100 µM | > 100 µM | > 100 µM | > 100 µM | > 100 µM | > 100 µM | > 100 µM | > 100 µM | > 100 µM | – | – | – | – | – | – | – | – | – | –
COC(=O)c1ccccc1/C=C1/Cc2ccccc2C1=O | > 100 µM | > 100 µM | > 100 µM | > 100 µM | > 100 µM | > 100 µM | > 100 µM | > 100 µM | > 100 µM | > 100 µM | – | – | – | – | – | – | – | – | – | –
C/C(N=Nc1nc2ccccc2s1)=C1/C=CC=CN1O | 91.6 µM | > 100 µM | > 100 µM | > 100 µM | > 100 µM | > 100 µM | 0.0978 µM | > 100 µM | > 100 µM | > 100 µM | – | – | – | – | – | – | – | – | – | –
NC(=O)C(=O)N/N=C1/c2ccccc2CC1C1(O)C(=O)Nc2c(Cl)cc(Cl)cc21 (stereo unspecified) | > 100 µM | > 100 µM | > 100 µM | > 100 µM | > 100 µM | > 100 µM | > 100 µM | > 100 µM | > 100 µM | > 100 µM | – | – | – | – | – | – | – | – | – | –
CN(C)C(CN)CC1=C(CC(CN)N(C)C)CCC1 (stereo unspecified) | > 100 µM | > 100 µM | > 100 µM | – | > 100 µM | > 100 µM | > 100 µM | > 100 µM | > 100 µM | > 100 µM | – | – | – | – | – | – | – | – | – | –
C=C1[C@@H](O)C[C@@]23CC[C@@H]4[C@@]5(C)CC[C@@H](OC(C)=O)C(C)(C)[C@@H]5C[C@@H](OC5OC(COC(C)=O)C(O)C(O)C5O)[C@@]4(C)C2=CC[C@H]3[C@H]1C (stereo partly specified) | 21.1 µM | 28 µM | 26.1 µM | 21.9 µM | 25.8 µM | 19 µM | 3.88 µM | 26.7 µM | 4.75 µM | 23.8 µM | – | – | – | – | – | – | – | – | – | –
CC1(C)C(c2ccccc2)=[N+]([O-])C(C)(C)N1O | > 10 µM | – | > 10 µM | > 10 µM | > 10 µM | > 10 µM | > 10 µM | > 10 µM | > 10 µM | > 10 µM | – | – | – | – | – | – | – | – | – | –
O=c1c2ncn(C3CC(O)C(CO)O3)c2nnn1Cc1ccccc1[N+](=O)[O-] (stereo unspecified) | > 100 µM | > 100 µM | > 100 µM | > 100 µM | > 100 µM | > 100 µM | > 100 µM | > 100 µM | > 100 µM | > 100 µM | – | – | – | – | – | – | – | – | – | –
C/C(=C\c1ccccc1)C(=O)CCN1CCOCC1 | 22.3 µM | 41.5 µM | > 100 µM | – | > 100 µM | > 85.6 µM | 34.4 µM | 32.5 µM | 35.7 µM | > 100 µM | – | – | – | – | – | – | – | – | – | –
